Laboratory results taken from patent US10842767B2, “Use of ketone esters for prevention of CNS oxygen toxicity” (University of South Florida, priority 2011, dated 2020).
Where “and” joins values, the source holds several entries; their conditions need not be identical. Equal values may be shown once. Entries after “also recorded” stand apart in the source; their conditions may differ. Read-outs that look alike come from different tables or passages of the source.

Experiments:
[1] = Blood ketones (BHB, AcAc, acetone) and glucose after oral gavage; type: in vivo, rat; details: for blood BHB level versus control (words) / effect on blood glucose / blood AcAc / acetone level: ~10 g/kg gavage; for effect on blood glucose: over 4 hrs, relative to control (water); for blood AcAc / acetone level: acetone at 60 min; for duration of elevation of blood ketones: single oral/intragastric administration
Procedure: To determine the time course of ketosis, 18 adult male Sprague-Dawley rats (250-350 grams), pathogen-free, were purchased from a vendor (Harlan) and shipped 7 days after being implanted with carotid catheters. The rats were food (not water) deprived for 18 hours prior to the start of the experiment. […] Whole blood samples (10 μl) were acquired for analysis of glucose and BHB at USF utilizing a commercially available glucose/ketone monitoring system (Nova Max® Plus) at time 0, 30, 60, 120, 180 and 240 min. In addition, heparinized blood samples (200 μl) were collected into Eppendorf tubes at time 0, 30, 60, 120, 180 and 240 min. Samples were processed for the detection and quantification of BHB, AcAc, and acetone at Case Western Reserve University, Mouse Metabolic Phenotyping Center (MMPC). Briefly, samples were chilled on ice for 30 s, centrifuged in a micro-centrifuge (13,000 G) for 3-5 min and plasma (>100 μl), treated with reducing reagent of cold 0.2M sodium borodeuteride (NaBD4; Sigma, 205591, CAS 15681-89-7) dissolved in 0.1M NaOH (8.4 mg NaBD4 in 1 ml of 0.1M NaOH) and then immediately frozen on dry ice before storing at −80° C. Acetone was analyzed at the 60 minute time point, which was the predicted peak of blood AcAc levels (Desrochers et al. 1995). 300 μl of whole blood were collected in addition to the above collections, stabilized with cold 0.2M NaBD4, and then immediately frozen on dry ice. Samples were stored at −80° C. until analyzed for ketones. Internal standards of [^2H6]BHB or [^2H8]isopropanol were added to the treated plasma or blood samples (50 μl or 15 μl) and the BHB, AcAc (as M+1 of BHB) or acetone (as 2-propanol) metabolites were analyzed by gas chromatography-mass spectrometry (GC-MS) using an Agilent 5973 mass spectrometer, linked to a 6890 gas chromatograph equipped with an autosampler. Briefly, GC-MS conditions were either EI or CI mode (electron or chemical ionization mode); the samples were detected by selected ion monitoring as the BHB- and AcAc-trimethylsilyl derivatives (EI) or the derivative of acetone-pentafluorobenzoyl (CI). […]
Ketone measurements were taken at 30, 60, 120, 180 and 240 minutes. Blood plasma was treated with sodium borodeuteride (NaB2H4) to stabilize ketone concentration and then assayed by GC-MS. The rapid rise relating to blood ketones from BD-AcAc2 is due primarily from rapid desterfication in blood and tissues.

[2] = for blood pH after administration (FIG. 20): from 7.45
[3] = system: rats exposed to 5 ATA O2 (CNS oxygen toxicity seizures); assay: Latency to seizure (CNS-OT) in rats breathing hyperbaric oxygen at 5 ATA, radio-telemetry EEG; type: in vivo, rat; details: for increase in latency to seizure (LS) compared to control (water): rats, 5 ATA O2, ~10 g/kg (3 ml) gavage 30 min before dive
Text: All animal procedures were done in accordance with the University of South Florida Institutional Animal Care and Use Committee (IACUC) guidelines. Adult male Sprague-Dawley rats (n=60), 250-300 grams, were obtained from Harlan, anesthetized in 3-5% isoflurane (in O2) and implanted with a 4ET radio-transmitter (Data Sciences International, DSI) using sterile surgical technique. One pair of leads (positive and negative poles) was implanted in the costal diaphragm at the junction with the abdominal wall for diaphragmatic electromyogram (dEMG) signals, one pair of electrodes was inserted in the pectoral muscle to acquire electrocardiogram (ECG) data, and two pairs of wires were embedded in the skull between Bregma and Lambda, with one lead on either side of midline for each pair (EEG recordings). The EMG wires were not inserted into crural diaphragmatic muscle because of the high risk of pneumothorax due to the thinness of the muscle (419 to 630 μm). 4ET radio-transmitters also monitored core body temperature and physical activity. Rats were weighed immediately before surgery and subsequently once every 7 days, just prior to the weekly exposures to HBO2. After surgery, every animal recovered for ≥1 week.
The radiotelemetry system consisted of an implantable 4ET radio-transmitter able to amplify and broadcast signals via a receiver (DSI PhysioTel, model RPC-2) connected to an acquisition interface unit (ACQ 7700 Ponemah) via electrical penetrations in the wall of the hyperbaric chamber. The acquisition interface unit was connected to a computer for real time data collection and storage. The same acquisition unit also recorded chamber pressure and temperature, which were measured, respectively, […] directly connected to the acquisition system via BNC (Bayonet Neill-Concelman) cables. Each animal was continuously monitored via a video camera (AXIS 221 Network Camera) and the video of each experiment was recorded as well.
The hyperbaric system consisted of two main elements: 1) a plexiglass chamber (˜3 liter capacity, Diamond Box, Buxco, Electronics Inc., model PLY3114), that housed the rat during the experiment, and 2) a hyperbaric chamber (Reimers System Inc.—7.8 ATA MWP), that contained the plexiglass chamber and functioned as the pressure vessel. Both chambers were connected to an air compressor (oil-less rotary scroll compressor—model DK6086, Powerex).
During each experiment (hyperbaric hyperoxia), both the main chamber and the animal chamber were filled with air. Rats were placed into the plexiglass chamber and allowed ten minutes to acclimate, at which time the plexiglass chamber was flushed with 100% O2. The animal was then allowed 15 minutes to acclimate before both chambers were compressed to 5 ATA (58.8 PSIG) at a rate of 0.7 ATA/min. […] Each experiment was visually monitored via a live camera. LS was calculated from the moment at which the internal and the external chambers reached 5 ATA until the onset of convulsions, identified as high-amplitude, high frequency spikes lasting 10 to 30 sec, followed by polyspikes and wave formation concurrent with tonic-clonic motions of forelimbs and head. […]
The details of this example are explained in the Materials and Methods section above. Briefly, the effects of ketone esters (KEs) in preventing CNS-OT in rats were assessed before, during and after HBO2 exposure by measuring various parameters. […]

[4] = system: primary cultures of rat cortical neurons; assay: Superoxide anion production (DHE fluorescence) in primary cortex neurons exposed to HBO2 or amyloid beta; type: cell-based; details: 60 min 5 ATA O2, NBO and HBO
Procedure: Primary dissociated neuronal cultures of the hippocampus and cortex are acquired from Brain Bits LLC, to increase time efficiency and to minimize cost associated with purchasing rats. Hippocampal or cortical tissue from Brain Bits (shipped in Hibernate®) are enzymatically and mechanically dissociated via pipette trituration. Neurons are plated on 12 mm glass coverslips and allowed to adhere for 1-2 hrs in an incubator maintained at 9-20% O2 in a humidified atmosphere. Cultures are maintained in media purchased from Brain Bits, including NbActiv1® and NbActive4. […] Fluorescent probes (for use with fluorescence and confocal microscopy)
List of fluorescence probes that will be purchased from Invitrogen: • Dihydroethidium, DHE (1-10 μM; Exλ 525, Emλ 590) detects intracellular ·O2^− generation (Bindokas et al. 1996; D'Agostino et al. 2007). • Calcein-AM (4 μM; Exλ 490, Emλ 535) detects cell volume and monitors cell viability (Crowe, 1995; Inglefield, 1998; Inglefield, 1999). • Ethidium Homodimer-1, EH-1 (6 μM; Exλ 525, Emλ 590) enters cells upon membrane damage and thus labels dead or dying cells (Bickler and Hansen 1998; Pinheiro et al. 2006). Fluorescence and Confocal Microscopy […]
Presence of intracellular ROS is measured by detection of superoxide anion using Dihydroethidium (DHE). […] Cells are washed in PBS and then visualized using fluorescent microscopy or quantified using spectrophotometry.

[5] = in vivo; cited from earlier work

Compound: C[C@H](O)CCO [BD, R,S-1,3-butanediol, reference compound]
- blood BHB level ([1]; rats, 10 g/kg oral gavage): > 5 mM
- blood BHB level versus control (words) ([1]; rats): significant increase in BHB
- effect on blood glucose ([1]; rats): no significant effect on blood glucose levels
- blood AcAc / acetone level ([1]; rats): only modest elevation in AcAc; also recorded: remained low or undetectable
- blood BHB level versus control (words) ([1]; rats, listed as 1,3-butanediol): elevated blood levels of β-hydroxybutyrate
- acidosis ([2]; acute administration): mild nonpathological acidosis
- mean decrease of blood pH compared to control (pH~7.5) ([2]; after about 30 minutes): 0.05
- mean decrease of blood pH compared to control (pH~7.5) ([2]; after about one hour): 0.1
- blood pH after administration (FIG. 20) [2]: 7.35

Compound: CC(=O)CC(=O)OCCC(C)OC(=O)CC(C)=O (stereo not shown) [BD-AcAc2, R,S-1,3-butanediol acetoacetate diester]
- increase in latency to seizure (LS) compared to control (water) [3]: > 570%
- increase in latency to seizure (LS) compared to control (water) ([3]; listed as KE): 574±115% and 574±116%
- increase in latency to seizure (LS) compared to control (water) ([3]; listed as dKE): 570%
- total ketones ([1]; about 30 minutes after gavage): > 5 mM
- total blood ketones (BHB, AcAc and acetone) ([1]; after 1 hr, average): > 6 mM
- blood AcAc level ([1]; rats, 10 g/kg oral gavage): > 3 mM
- blood BHB level ([1]; rats, 10 g/kg oral gavage): > 3 mM
- blood BHB level versus control (words) ([1]; rats): significant increase in BHB and AcAc at 30 minutes
- effect on blood glucose ([1]; rats): does not elevate blood glucose
- effect on blood glucose ([1]; rats, listed as KE): no significant effect on blood glucose levels
- blood AcAc / acetone level ([1]; rats, listed as KE): significantly higher at 60 minutes; also recorded: increased significantly
- sustained elevation of total ketones ([1]; single oral administration, for over 4 hrs): > 6 mM
- duration of elevation of blood ketones [1]: over 4 h
- duration of elevation of blood ketones ([1]; listed as KE): 4 h and > 4 h
- blood acetone level ([1]; within about 60 minutes after administration): ~0.7 mM
- mean decrease of blood pH compared to control (pH~7.5) ([2]; after about 30 minutes): 0.05
- mean decrease of blood pH compared to control (pH~7.5) ([2]; after about one hour): 0.1
- blood pO2 ([2]; during the 4 hour experiment): > 120 mmHg
- blood pH after administration (FIG. 20) [2]: 7.35
- increase in blood pO2 levels ([2]; significant and sustained): approximately 30%

Compound: CC(=O)CC(=O)OCCC(C)O (stereo not shown) [BD-AcAc, R,S-1,3-butanediol acetoacetate monoester]
- latency to seizure, single rat EEG (FIG. 7) ([3]; HBO2 at 60 PSI (5 ATA O2), same rat without ketone ester about 8 minutes): 110 min
- increase in latency to seizure (LS) compared to control (water) [3]: 285%

Compound: Cc1ccccc1NC(=N)Nc1ccccc1C [DTG, 1,3,-di-o-tolylguanidine]
- effect on superoxide production under hyperoxia [4]: prevented the hyperoxia-induced increase in superoxide production

Compound: (R)-1,3-butanediol ester [BHB ester, reference compound]
- blood BHB level versus control (words) ([1]; rats): elevated blood levels of β-hydroxybutyrate

Compound: MCT oil
- level of ketones produced by supplementation [5]: < 500 µM
